Biological target: T1, GST-P1 (Homo sapiens, UniProt P09211)
T1 construct: gene GSTP1; 6xHis-tagged GST-P1 recombinant protein
Assay: GSH-CDNB conjugation assay with purified recombinant enzyme; also PGV-1 bead pulldown competed by glutathione
Format: biochemical

T1 sequence (P09211 2-210): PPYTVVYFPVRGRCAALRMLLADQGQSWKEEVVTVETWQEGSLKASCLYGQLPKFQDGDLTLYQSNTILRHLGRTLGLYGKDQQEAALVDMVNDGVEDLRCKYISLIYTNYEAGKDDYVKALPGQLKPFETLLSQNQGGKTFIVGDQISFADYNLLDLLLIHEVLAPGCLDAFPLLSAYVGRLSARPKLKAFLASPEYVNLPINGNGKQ

An IC50 of 97.6 ± 3.8 µM was found for `Cc1cc(/C=C2\CC/C(=C\c3cc(C)c(O)c(C)c3)C2=O)cc(C)c1O` [PGV-1] in this work.
